# ChEMBL document CHEMBL3525933 (Drug Metab Dispos, 2012)
# Key:
# [1] = test system: Plasma; experiment: Drug metabolism in conventional Wistar rat plasma assessed as 1,7-dihydroxyxanthone metabolite formation at 400 mg/kg, po administered as single dose by HPLC-DAD analysis; assay type: ADME, organism-based; design: dose 400 mg/kg, route oral; settings: in vivo
# [2] = test system: Plasma; experiment: Stability in Wistar rat plasma measured within three freeze thaw cycles by HPLC-DAD analysis; assay type: ADME, cell-free
# [3] = Cmax in conventional Wistar rat at 400 mg/kg, po administered as single dose by HPLC-DAD analysis; assay type: ADME, organism-based; design: dose 400 mg/kg, route oral; settings: in vivo
# [4] = test system: Plasma; experiment: Drug metabolism in Wistar rat plasma assessed as retention time by HPLC-DAD analysis; assay type: ADME, cell-free
# [5] = AUC(0 to infinity) in conventional Wistar rat at 400 mg/kg, po administered as single dose by HPLC-DAD analysis; assay type: ADME, organism-based; design: time infinity, dose 400 mg/kg, route oral; settings: plasma
# [6] = Drug excretion in pseudo-germ free Wistar rat feces assessed as unchanged drug level at 400 mg/kg, po administered as single dose by HPLC-DAD analysis; assay type: ADME, organism-based; design: dose 400 mg/kg, route oral; settings: in vivo
# [7] = AUC(0 to t) in pseudo-germ free Wistar rat at 400 mg/kg, po administered as single dose by HPLC-DAD analysis; assay type: ADME, organism-based; design: dose 400 mg/kg, route oral; settings: plasma
# [8] = Drug excretion in pseudo-germ free Wistar rat urine assessed as norathyriol metabolite level at 400 mg/kg, po administered as single dose by HPLC-DAD analysis; assay type: ADME, organism-based; design: dose 400 mg/kg, route oral; settings: in vivo
# [9] = Elimination half life in streptozotocin-induced diabetic Wistar rat at 400 mg/kg, po administered as single dose by HPLC-DAD analysis; assay type: ADME, organism-based; design: dose 400 mg/kg, route oral; settings: in vivo, read-out: beta t1/2 (converted)
# [10] = test system: Plasma; experiment: Drug uptake in pseudo-germ free Wistar rat plasma at 400 mg/kg, po administered as single dose by HPLC-DAD analysis; assay type: ADME, organism-based; design: dose 400 mg/kg, route oral; settings: in vivo
# [11] = test system: Plasma; experiment: Drug level in streptozotocin-induced diabetic Wistar rat plasma treated with mangiferin at 400 mg/kg, po administered as single dose by HPLC-DAD analysis; assay type: ADME, organism-based; design: dose 400 mg/kg, route oral; settings: in vivo
# [12] = test system: Plasma; experiment: Drug uptake in streptozotocin-induced diabetic Wistar rat plasma at 400 mg/kg, po administered as single dose by HPLC-DAD analysis; assay type: ADME, organism-based; design: dose 400 mg/kg, route oral; settings: in vivo
# [13] = test system: Plasma; experiment: Drug uptake in conventional Wistar rat plasma at 400 mg/kg, po administered as single dose by HPLC-DAD analysis; assay type: ADME, organism-based; design: dose 400 mg/kg, route oral; settings: in vivo
# [14] = MRT(0 to infinity) in pseudo-germ free Wistar rat at 400 mg/kg, po administered as single dose by HPLC-DAD analysis; assay type: ADME, organism-based; design: dose 400 mg/kg, route oral; settings: in vivo
# [15] = AUC(0 to infinity) in streptozotocin-induced diabetic Wistar rat at 400 mg/kg, po administered as single dose by HPLC-DAD analysis; assay type: ADME, organism-based; design: time infinity, dose 400 mg/kg, route oral; settings: plasma
# [16] = test system: Plasma; experiment: Drug metabolism in pseudo-germ free Wistar rat plasma assessed as 1,7-dihydroxyxanthone metabolite formation at 400 mg/kg, po administered as single dose by HPLC-DAD analysis; assay type: ADME, organism-based; design: dose 400 mg/kg, route oral; settings: in vivo
# [17] = Drug excretion in pseudo-germ free Wistar rat urine assessed as 1,7-dihydroxyxanthone metabolite level at 400 mg/kg, po administered as single dose by HPLC-DAD analysis; assay type: ADME, organism-based; design: dose 400 mg/kg, route oral; settings: in vivo
# [18] = MRT(0 to t) in pseudo-germ free Wistar rat at 400 mg/kg, po administered as single dose by HPLC-DAD analysis; assay type: ADME, organism-based; design: dose 400 mg/kg, route oral; settings: in vivo
# [19] = Drug excretion in conventional Wistar rat urine assessed as unchanged drug level at 400 mg/kg, po administered as single dose by HPLC-DAD analysis; assay type: ADME, organism-based; design: dose 400 mg/kg, route oral; settings: in vivo
# [20] = species on record: Rattus norvegicus; experiment: Drug retention time in Wistar rat by HPLC-DAD analysis; assay type: ADME, organism-based
# [21] = MRT(0 to infinity) in conventional Wistar rat at 400 mg/kg, po administered as single dose by HPLC-DAD analysis; assay type: ADME, organism-based; design: dose 400 mg/kg, route oral; settings: in vivo
# [22] = Tmax in conventional Wistar rat at 400 mg/kg, po administered as single dose by HPLC-DAD analysis; assay type: ADME, organism-based; design: dose 400 mg/kg, route oral; settings: in vivo
# [23] = test system: Plasma; experiment: Drug metabolism in pseudo-germ free Wistar rat plasma assessed as norathyriol metabolite formation at 400 mg/kg, po administered as single dose by HPLC-DAD analysis; assay type: ADME, organism-based; design: dose 400 mg/kg, route oral; settings: in vivo
# [24] = test system: Plasma; experiment: Stability in Wistar rat plasma measured after storage at -80 degC for 20 days by HPLC-DAD analysis; assay type: ADME, cell-free; settings: 480 h
# [25] = Cmax in pseudo-germ free Wistar rat at 400 mg/kg, po administered as single dose by HPLC-DAD analysis; assay type: ADME, organism-based; design: dose 400 mg/kg, route oral; settings: in vivo
# [26] = Apparent oral clearance in streptozotocin-induced diabetic Wistar rat at 400 mg/kg, po administered as single dose by HPLC-DAD analysis; assay type: ADME, organism-based; design: dose 400 mg/kg, route oral; settings: in vivo
# [27] = AUC(0 to infinity) in pseudo-germ free Wistar rat at 400 mg/kg, po administered as single dose by HPLC-DAD analysis; assay type: ADME, organism-based; design: time infinity, dose 400 mg/kg, route oral; settings: plasma
# [28] = test system: Plasma; experiment: Drug metabolism in conventional Wistar rat plasma assessed as norathyriol metabolite formation at 400 mg/kg, po administered as single dose by HPLC-DAD analysis; assay type: ADME, organism-based; design: dose 400 mg/kg, route oral; settings: in vivo
# [29] = Drug excretion in conventional Wistar rat urine assessed as norathyriol metabolite level at 400 mg/kg, po administered as single dose by HPLC-DAD analysis; assay type: ADME, organism-based; design: dose 400 mg/kg, route oral; settings: in vivo
structure (smiles),measurement,setting,value
O=c1c2cc(O)c(O)cc2oc2cc(O)c([C@@H]3O[C@H](CO)[C@@H](O)[C@H](O)[C@H]3O)c(O)c12 [MANGIFERIN],Drug metabolism,[1],metabolite_not_detected
same,Stability,[2],Stable
same,Cmax,[3],715 ng/mL
same,Retention_time,[4],5.5 min
same,AUC(0-inf),[5],3820 ng·h/mL
same,Drug excretion,[6],metabolite_detected
same,AUC(0-t),[7],4320 ng·h/mL
same,Drug excretion,[8],metabolite_not_detected
same,half-life,[9],2.6 h
same,Drug uptake,[10],Active
same,Drug metabolism,[11],metabolite_detected
same,Drug uptake,[12],Active
same,Drug uptake,[13],Active
same,MRT inf,[14],7.52 h
same,AUC(0-inf),[15],8950 ng·h/mL
same,Drug metabolism,[16],metabolite_not_detected
same,Drug excretion,[17],metabolite_not_detected
same,MRT last,[18],7.42 h
same,Drug excretion,[19],metabolite_detected
same,Retention_time,[20],15.2 min
same,MRT inf,[21],7.77 h
same,Tmax,[22],0.73 h
same,Drug metabolism,[23],metabolite_not_detected
same,Stability,[24],Stable
same,Cmax,[25],452 ng/mL
same,CL/F,[26],772 mL/min/kg
same,AUC(0-inf),[27],4340 ng·h/mL
same,Drug metabolism,[28],metabolite_not_detected
same,Drug excretion,[29],metabolite_detected
